# Experimental data reported in ChEMBL document CHEMBL5576145, “Domoic Acid as a Lead for the Discovery of the First Selective Ligand for Kainate Receptor Subtype 5 (GluK5)” (J Med Chem, 2024).
# The source made the active and inactive calls. The calls are words filed in the database; no cut-off is given here.
# Assays:
# [1] = biological target: Glutamate receptor ionotropic, kainate 1 (Homo sapiens, UniProt P39086); assay: Displacement of [3H](2S, 4R)-4-MeGlu (SYM-2081) from GluK1 (unknown origin)
# Chain of Glutamate receptor ionotropic, kainate 1 (P39086 whole entry): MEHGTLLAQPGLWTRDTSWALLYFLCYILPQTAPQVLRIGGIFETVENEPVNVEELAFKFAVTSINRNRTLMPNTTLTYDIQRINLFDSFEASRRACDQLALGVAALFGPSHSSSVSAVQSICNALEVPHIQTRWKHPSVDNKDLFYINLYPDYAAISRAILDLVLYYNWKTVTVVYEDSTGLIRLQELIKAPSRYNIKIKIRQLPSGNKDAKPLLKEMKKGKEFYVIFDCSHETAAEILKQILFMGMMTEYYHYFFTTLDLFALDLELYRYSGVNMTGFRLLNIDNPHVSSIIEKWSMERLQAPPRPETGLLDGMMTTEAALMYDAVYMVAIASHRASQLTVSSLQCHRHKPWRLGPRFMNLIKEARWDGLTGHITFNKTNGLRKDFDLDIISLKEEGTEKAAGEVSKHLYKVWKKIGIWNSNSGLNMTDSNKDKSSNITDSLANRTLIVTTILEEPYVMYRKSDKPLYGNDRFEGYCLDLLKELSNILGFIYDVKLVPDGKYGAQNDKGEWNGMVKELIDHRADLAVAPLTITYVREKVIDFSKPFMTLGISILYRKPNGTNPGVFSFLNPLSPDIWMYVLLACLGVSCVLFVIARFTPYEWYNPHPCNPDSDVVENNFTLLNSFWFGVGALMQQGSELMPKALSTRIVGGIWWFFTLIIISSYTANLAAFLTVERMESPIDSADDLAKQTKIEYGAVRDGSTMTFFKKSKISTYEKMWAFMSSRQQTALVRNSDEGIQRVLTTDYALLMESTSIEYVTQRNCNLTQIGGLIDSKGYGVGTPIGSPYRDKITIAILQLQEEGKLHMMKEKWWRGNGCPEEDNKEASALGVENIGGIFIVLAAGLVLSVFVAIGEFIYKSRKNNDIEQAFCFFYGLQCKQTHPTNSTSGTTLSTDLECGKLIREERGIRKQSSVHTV
# [2] = Displacement of [3H]-Kainic acid from KA in rat synaptic membrane; type: subcellular, Synaptosome
# [3] = Binding affinity to KA receptor in rat synaptosomes; type: subcellular, Synaptosome
# Hippocampus = assay: Reduction in CA1 spike amplitude in Wistar rat hippocampal slices after 20 mins of toxin administration; type: functional, tissue-based
# Glutamate receptor 4 [4] = biological target: T1, Glutamate receptor 4 (Rattus norvegicus, UniProt P19493); assay: Binding affinity to AMPA receptor in rat synaptosomes; type: subcellular, Synaptosome
# T1 sequence (P19493 whole entry): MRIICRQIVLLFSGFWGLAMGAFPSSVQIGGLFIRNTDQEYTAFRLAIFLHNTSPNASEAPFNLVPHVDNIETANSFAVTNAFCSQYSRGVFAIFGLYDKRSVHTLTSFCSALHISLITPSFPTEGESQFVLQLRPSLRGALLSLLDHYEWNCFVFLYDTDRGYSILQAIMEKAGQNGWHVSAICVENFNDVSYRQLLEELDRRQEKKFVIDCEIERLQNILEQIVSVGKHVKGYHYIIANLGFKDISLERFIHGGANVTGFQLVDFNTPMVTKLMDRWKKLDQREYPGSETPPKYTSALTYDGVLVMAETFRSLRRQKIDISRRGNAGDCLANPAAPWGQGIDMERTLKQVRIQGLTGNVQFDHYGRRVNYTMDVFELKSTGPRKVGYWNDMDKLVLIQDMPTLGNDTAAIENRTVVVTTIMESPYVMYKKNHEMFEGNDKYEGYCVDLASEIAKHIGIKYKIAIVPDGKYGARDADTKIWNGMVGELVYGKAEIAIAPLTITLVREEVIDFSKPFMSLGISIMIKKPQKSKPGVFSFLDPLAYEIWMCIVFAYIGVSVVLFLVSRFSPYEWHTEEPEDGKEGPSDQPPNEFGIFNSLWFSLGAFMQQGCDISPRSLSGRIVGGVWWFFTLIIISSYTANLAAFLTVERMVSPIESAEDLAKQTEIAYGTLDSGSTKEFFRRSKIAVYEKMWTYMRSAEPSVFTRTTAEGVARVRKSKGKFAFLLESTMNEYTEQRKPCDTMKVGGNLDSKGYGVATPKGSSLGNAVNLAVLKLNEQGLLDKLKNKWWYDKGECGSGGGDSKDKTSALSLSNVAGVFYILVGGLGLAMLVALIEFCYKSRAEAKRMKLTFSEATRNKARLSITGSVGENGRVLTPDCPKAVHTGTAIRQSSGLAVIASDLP
# [5] = biological target: T2, Glutamate receptor ionotropic, kainate 2 (Homo sapiens, UniProt Q13002); assay: Displacement of [3H](2S, 4R)-4-MeGlu (SYM-2081) from GluK2 (unknown origin)
# T2 sequence (Q13002 whole entry): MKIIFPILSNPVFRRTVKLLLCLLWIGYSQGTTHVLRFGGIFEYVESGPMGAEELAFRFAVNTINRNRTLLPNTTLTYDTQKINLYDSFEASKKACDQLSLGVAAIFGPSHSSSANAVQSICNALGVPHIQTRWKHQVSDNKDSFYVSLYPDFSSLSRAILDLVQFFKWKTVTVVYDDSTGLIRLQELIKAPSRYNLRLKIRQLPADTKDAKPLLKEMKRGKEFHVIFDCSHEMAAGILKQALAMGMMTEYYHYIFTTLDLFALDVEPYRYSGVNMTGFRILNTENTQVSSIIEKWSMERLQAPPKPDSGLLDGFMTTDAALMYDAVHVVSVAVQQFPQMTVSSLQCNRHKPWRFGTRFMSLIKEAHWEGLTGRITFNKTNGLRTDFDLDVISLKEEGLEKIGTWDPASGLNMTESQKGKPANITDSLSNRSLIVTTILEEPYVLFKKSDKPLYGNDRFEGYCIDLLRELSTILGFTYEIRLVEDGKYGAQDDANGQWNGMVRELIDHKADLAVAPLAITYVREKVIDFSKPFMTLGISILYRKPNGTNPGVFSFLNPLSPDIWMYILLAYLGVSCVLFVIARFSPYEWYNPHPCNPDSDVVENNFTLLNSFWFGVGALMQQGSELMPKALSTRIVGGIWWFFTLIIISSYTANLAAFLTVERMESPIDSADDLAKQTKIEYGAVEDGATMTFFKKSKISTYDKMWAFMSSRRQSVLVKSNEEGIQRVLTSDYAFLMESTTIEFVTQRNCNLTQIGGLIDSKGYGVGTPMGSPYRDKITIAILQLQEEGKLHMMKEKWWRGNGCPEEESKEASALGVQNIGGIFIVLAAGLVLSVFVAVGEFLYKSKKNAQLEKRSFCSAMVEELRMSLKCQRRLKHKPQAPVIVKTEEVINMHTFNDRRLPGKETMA
# Glutamate receptor 4 [6] = biological target: T1, Glutamate receptor 4; assay: Displacement of [3H]-AMPA from AMPA in rat synaptic membrane; type: subcellular, Synaptosome
# [7] = biological target: T3, Ionotropic glutamate receptor kainate 2/5 (Homo sapiens) (UniProt Q16478+Q13002); assay: Agonist activity at GluK2/K5 (unknown origin) expressed in HEK293T cells at 10 uM by electrophysiology; type: cell-based
# [8] = biological target: T3, Ionotropic glutamate receptor kainate 2/5 (Homo sapiens); assay: Antagonist activity at GluK2/K5 (unknown origin) expressed in HEK293T cells preincubated with compound followed by L-Glu stimulation by electrophysiology; type: cell-based
# [9] = biological target: Glutamate receptor ionotropic, kainate 2 (Rattus norvegicus, UniProt P42260); assay: Displacement of [3H]-KA from rat GluK2
# Chain of Glutamate receptor ionotropic, kainate 2 (Rattus norvegicus, UniProt P42260) (P42260 whole entry): as the sequence (Q13002 whole entry) above, with F5S, I7V, P11L, R14S, T16S, V17I, L19V, A494V counted along it
# Neuron [10] = assay: Agonist activity at GluK2/K5 in mouse hippocampal neurons assessed as change in holding current at 10 uM by electrophysiology; type: cell-based; conditions: filed as agonist
# Neuron [11] = assay: Agonist activity at GluK2/K5 in mouse hippocampal neurons assessed as change in holding current at 100 uM by electrophysiology; type: cell-based; conditions: filed as agonist
# [12] = Displacement of [3H]-KA from KA in rat cortical synaptosomes incubated for 60 mins by TopCount microplate scintillation counting method; type: subcellular, Cortex, Synaptosome
# [13] = biological target: Glutamate NMDA receptor (Rattus norvegicus) (UniProt P35439+Q00959+Q00960+Q00961+Q62645+Q8VHN2+Q9R1M7); assay: Displacement of [3H]CGP39653 from NMDA receptor in rat cortical synaptosomes assessed as remaining activity at 10 uM incubated for 60 mins by Topcount microplate scintillation counting method relative to control; type: subcellular; conditions: Cortex, Synaptosome
# [14] = biological target: Glutamate receptor ionotropic, kainate 3 (Rattus norvegicus, UniProt P42264); assay: Displacement of [3H]-KA from rat GluK3
# Chain of Glutamate receptor ionotropic, kainate 3 (P42264 whole entry): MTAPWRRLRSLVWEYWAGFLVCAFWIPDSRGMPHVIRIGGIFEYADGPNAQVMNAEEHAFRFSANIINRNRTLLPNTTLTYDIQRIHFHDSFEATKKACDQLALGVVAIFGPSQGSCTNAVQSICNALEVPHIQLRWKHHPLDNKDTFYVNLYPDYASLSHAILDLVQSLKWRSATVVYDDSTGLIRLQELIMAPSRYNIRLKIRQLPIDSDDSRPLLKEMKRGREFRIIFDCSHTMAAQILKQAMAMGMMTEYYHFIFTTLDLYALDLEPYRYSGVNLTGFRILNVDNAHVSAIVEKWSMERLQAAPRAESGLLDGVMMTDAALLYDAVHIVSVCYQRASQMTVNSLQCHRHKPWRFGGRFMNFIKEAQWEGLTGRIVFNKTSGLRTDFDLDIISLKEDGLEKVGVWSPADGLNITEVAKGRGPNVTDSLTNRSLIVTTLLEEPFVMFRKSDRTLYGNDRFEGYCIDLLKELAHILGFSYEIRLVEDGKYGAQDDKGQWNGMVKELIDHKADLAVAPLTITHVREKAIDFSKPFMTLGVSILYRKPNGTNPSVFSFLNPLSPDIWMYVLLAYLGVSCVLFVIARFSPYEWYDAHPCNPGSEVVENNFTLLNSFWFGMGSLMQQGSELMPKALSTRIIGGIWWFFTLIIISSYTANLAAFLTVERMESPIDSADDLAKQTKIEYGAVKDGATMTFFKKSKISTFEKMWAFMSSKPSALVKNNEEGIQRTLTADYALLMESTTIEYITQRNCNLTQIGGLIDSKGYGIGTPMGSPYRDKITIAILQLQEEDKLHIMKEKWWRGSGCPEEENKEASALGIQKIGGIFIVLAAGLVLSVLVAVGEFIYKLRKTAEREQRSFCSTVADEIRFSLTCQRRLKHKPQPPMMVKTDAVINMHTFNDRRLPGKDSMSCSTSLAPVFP
# [15] = biological target: Glutamate receptor 4 (Rattus norvegicus) (UniProt P19493); assay: Displacement of [3H]-AMPA from AMPA in rat cortical synaptosomes assessed as remaining activity at 10 uM incubated for 30 mins by TopCount microplate scintillation counting method relative to control; type: subcellular; conditions: Cortex, Synaptosome
# Chain of Glutamate receptor 4 (Rattus norvegicus) (P19493 whole entry): as the sequence (P19493 whole entry) above
# [16] = biological target: Glutamate receptor ionotropic, kainate 1 (Rattus norvegicus) (UniProt P22756); assay: Displacement of [3H]-NF608 from rat GluK1 assessed as percent of radioligand binding at 10 uM relative to control
# Chain of Glutamate receptor ionotropic, kainate 1 (Rattus norvegicus) (P22756 whole entry): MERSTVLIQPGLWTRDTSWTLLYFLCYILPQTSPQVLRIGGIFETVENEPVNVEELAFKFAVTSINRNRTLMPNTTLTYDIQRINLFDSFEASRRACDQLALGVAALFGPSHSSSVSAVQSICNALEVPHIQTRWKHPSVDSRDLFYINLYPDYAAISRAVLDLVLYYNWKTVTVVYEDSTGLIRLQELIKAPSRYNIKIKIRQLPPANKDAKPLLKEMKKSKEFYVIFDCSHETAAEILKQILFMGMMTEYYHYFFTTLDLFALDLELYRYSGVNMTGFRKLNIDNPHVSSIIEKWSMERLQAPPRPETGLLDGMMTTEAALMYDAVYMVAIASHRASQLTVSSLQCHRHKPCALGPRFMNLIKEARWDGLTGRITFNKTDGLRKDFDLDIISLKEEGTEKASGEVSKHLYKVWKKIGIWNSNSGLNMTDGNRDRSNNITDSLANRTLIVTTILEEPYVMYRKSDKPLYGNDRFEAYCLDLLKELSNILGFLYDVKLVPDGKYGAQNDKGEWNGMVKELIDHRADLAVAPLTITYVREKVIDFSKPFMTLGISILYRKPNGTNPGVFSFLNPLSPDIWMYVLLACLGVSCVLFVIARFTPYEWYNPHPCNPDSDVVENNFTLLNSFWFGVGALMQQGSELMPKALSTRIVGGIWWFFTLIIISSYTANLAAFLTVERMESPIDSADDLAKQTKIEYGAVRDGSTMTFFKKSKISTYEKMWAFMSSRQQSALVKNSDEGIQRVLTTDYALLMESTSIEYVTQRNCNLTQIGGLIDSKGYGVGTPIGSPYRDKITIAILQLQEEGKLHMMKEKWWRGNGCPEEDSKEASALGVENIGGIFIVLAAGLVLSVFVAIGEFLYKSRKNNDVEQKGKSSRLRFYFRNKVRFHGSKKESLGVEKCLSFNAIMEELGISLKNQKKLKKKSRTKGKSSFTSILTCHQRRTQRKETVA
# [17] = biological target: T4, Glutamate receptor ionotropic, kainate 5 (Mus musculus, UniProt Q61626); assay: Displacement of [3H]-kainate from mouse GluK5 expressed in Sf9 cell membrane incubated for 2 hrs by scintillation counting method; type: cell membranes
# T4 sequence (Q61626 whole entry): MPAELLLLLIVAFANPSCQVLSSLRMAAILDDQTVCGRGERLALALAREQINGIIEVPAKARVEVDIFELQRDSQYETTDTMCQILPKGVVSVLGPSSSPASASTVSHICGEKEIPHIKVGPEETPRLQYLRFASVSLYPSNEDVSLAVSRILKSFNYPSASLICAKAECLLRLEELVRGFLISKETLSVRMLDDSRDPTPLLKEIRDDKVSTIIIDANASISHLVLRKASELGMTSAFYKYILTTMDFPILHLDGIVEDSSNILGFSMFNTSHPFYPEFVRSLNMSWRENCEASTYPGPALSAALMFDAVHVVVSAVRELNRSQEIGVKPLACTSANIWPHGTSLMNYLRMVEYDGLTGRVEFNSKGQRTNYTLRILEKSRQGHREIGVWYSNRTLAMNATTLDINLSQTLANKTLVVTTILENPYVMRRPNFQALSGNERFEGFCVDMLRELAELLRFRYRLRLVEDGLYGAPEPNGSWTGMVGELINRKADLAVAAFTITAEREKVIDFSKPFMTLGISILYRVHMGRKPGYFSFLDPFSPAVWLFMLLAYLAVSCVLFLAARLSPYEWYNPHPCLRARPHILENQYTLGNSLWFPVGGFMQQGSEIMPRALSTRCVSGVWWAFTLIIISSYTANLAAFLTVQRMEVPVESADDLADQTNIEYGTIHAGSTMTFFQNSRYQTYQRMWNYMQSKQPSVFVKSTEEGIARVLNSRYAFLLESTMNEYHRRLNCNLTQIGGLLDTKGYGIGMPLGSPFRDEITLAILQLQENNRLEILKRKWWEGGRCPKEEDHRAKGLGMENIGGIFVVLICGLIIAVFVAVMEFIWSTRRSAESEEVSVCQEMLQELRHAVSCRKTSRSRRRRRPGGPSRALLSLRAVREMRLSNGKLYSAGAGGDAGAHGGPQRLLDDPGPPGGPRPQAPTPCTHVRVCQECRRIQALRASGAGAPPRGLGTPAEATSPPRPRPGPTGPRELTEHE
# [18] = biological target: T2, Glutamate receptor ionotropic, kainate 2; assay: Displacement of [3H]-kainic acid from GluR6 (unknown origin) expressed in Sf9 cells membrane; type: cell membranes, Cell membrane
Activity [7],Activity [8],Ki [9],IC50 [12],Activity [13],Ki [14],Activity [15],Activity [16],Ki [17],SMILES,Ki [1],IC50 [2],IC50 [3],EC50 (Hippocampus),IC50 (Glutamate receptor 4 [4]),Ki [5],IC50 (Glutamate receptor 4 [6]),Activity (Neuron [10]),Activity (Neuron [11]),Ki [18]
–,–,–,–,–,–,–,–,–,C/C(=C/C=C/[C@@H](C)C(=O)O)[C@H]1CN[C@H](C(=O)O)[C@H]1CC(=O)O [DOMOIC ACID],1.11 nM,4 nM,15 nM,228 nM,9000 nM,6.04 nM,470 nM,–,–,–
inactive,inactive,70000 nM,4400 nM,99%,17900 nM,90%,90%,432 nM,O=C(O)C[C@@H]1[C@@H](C(=O)O)NC[C@@H]1n1nncc1-c1ccc2cc(O)ccc2c1,–,–,–,–,–,–,–,56 pA,148 pA,–
–,–,–,–,–,–,–,–,–,C/C(=C/C/C=C(\C)C(=O)O)[C@H]1CN[C@H](C(=O)O)[C@H]1CC(=O)O,–,–,–,887 nM,–,–,–,–,–,130 nM
